Data taken from ChEMBL document CHEMBL1201862, “PubChem BioAssay data set” (2004).
Calls of active or inactive are those of the source.

Tested on: not listed separately
Assay: Luminescence Cell-Based Dose Retest to Confirm Inhibitors of Cancer Stem Cells. [Related pubchem assays (depositor defined):AID2717, AID2721]
Assay type: functional
Settings: Homo sapiens

Row | SMILES | AC50
1 | CCN1C(=O)/C(=C\N2CCN(c3cccc(Cl)c3)CC2)SC1=S | 1.77 µM (active)
2 | Oc1ccc(Br)cc1-c1cc(-c2ccccc2)[nH]n1 | 4.95 µM (active)
3 | O=C(Nc1ccccc1)C1=C[C@@H](c2csc3ccccc23)C[C@@H](OCc2ccc(CO)cc2)O1 | 2.65 µM (active)
4 | CC1CCCC(N=C(S)Nc2ccc(SC(F)F)cc2)C1C (stereo unspecified) | 5.61 µM (active)
5 | CCCC(C)c1nnc(NC(=O)COc2ccc3c(c2)OCO3)s1 (stereo unspecified) | 5.69 µM (active)
6 | COc1ccccc1NC(=O)c1ccc(S(=O)(=O)N2CCCC(C)C2)cc1 (stereo unspecified) | > 195 µM (inactive)
7 | COc1cccc(-c2ccc(C#N)c(OC(=O)c3c(Cl)cccc3Cl)n2)c1 | 3.52 µM (active)
8 | COc1ccc(/C=N/N(c2ccccc2)c2ccccc2)cc1O | 6.76 µM (active)
9 | C/C(=N\NC(=O)c1nnn(-c2nonc2N)c1CN1CCCCC1)c1ccccc1O | 3.42 µM (active)

Molecular target: T1, Cytochrome P450 1A2 (Homo sapiens, UniProt P05177);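 note: PubChem cytochrome P450 panel assay, CYP1A2 panel member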
T1 sequence (P05177 whole entry): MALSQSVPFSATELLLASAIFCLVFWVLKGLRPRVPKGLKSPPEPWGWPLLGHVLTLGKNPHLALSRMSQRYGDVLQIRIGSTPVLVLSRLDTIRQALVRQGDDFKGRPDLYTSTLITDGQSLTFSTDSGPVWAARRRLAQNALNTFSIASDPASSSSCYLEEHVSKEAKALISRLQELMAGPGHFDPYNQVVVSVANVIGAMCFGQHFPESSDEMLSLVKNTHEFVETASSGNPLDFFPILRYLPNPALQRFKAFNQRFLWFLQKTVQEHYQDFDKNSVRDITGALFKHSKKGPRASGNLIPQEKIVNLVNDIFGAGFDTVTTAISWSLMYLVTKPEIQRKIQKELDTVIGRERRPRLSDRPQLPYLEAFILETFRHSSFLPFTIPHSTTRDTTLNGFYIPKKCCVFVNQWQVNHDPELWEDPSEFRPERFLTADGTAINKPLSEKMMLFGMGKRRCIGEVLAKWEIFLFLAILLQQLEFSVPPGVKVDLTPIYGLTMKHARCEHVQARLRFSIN
Settings: not given

Row | AC50 | SMILES
10 | 31.6 µM (inconclusive) | Cc1ccc(C(=O)CSc2nc(C)cc(=O)[nH]2)cc1

Tested on: not listed separately
Assay: viability of uninfected HEp-2 cells – cell-based, HTS, cytotoxicity control for RSV inhibitor project, dose response (AID 2410)
Assay type: functional
Settings: human respiratory syncytial virus

Row | SMILES | CC50
11 | COc1cccc(-c2ccc(C#N)c(OC(=O)c3c(Cl)cccc3Cl)n2)c1 | 28.1 µM (active)

Molecular target: T2, Heat shock factor protein 1 (Mus musculus, UniProt P38532)
T2 sequence (P38532 whole entry): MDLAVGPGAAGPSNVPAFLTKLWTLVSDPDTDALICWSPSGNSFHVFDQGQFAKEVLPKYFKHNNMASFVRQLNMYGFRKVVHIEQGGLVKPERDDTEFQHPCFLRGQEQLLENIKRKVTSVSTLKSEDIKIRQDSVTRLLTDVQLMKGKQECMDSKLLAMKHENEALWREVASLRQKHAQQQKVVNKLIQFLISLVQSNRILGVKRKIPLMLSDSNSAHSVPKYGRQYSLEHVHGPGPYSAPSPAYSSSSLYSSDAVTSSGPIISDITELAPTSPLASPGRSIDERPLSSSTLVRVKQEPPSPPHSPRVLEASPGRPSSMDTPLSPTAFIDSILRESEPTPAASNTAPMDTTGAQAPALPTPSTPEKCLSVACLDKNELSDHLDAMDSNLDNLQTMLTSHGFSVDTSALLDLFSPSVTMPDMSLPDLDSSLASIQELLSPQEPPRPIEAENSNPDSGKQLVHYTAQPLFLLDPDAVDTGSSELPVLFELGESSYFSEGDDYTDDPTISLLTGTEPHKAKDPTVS
Assay: enhancement of HSF1-driven luciferase signal – cell-based, NIH3T3, luminescence, dose retest, confirmation (AID 435004);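 note: stress induced by proteasome inhibitor MG132 added 30 min after compound; luciferase reporter driven by HSF1 response element in NIH3T3 cells; actives raise luminescence as potentiators of the MG132 stress response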
Assay type: functional
Settings: not given

Row | SMILES | EC50
12 | CCCCCCNC(=O)CN=C(S)N(Cc1cccs1)C1CCCCC1 | > 260 µM (inactive)
13 | Cc1cc2c3c(c1)C1(C(=O)N3C(C)(C)CC2C)C(C#N)=C(N)Oc2cc(O)ccc21 (stereo unspecified) | 54.7 µM (active)

Other lines, results leading:

Row | EC50 | SMILES
14 | > 260 µM (inactive) | Cc1cc(C)c2c(NC(=O)C3CC3)nn(C)c2n1
15 | 36.5 µM (active) | Cn1c(=O)c(/C=C/c2ccc(F)cc2)nc2ccccc21
16 | 49.8 µM (active) | Oc1ccc2ccccc2c1CN1CCN(c2ccccc2)CC1
17 | 176 µM (active) | CC(=O)c1cccc(N(CC(=O)Nc2ccc(F)cc2F)S(C)(=O)=O)c1
18 | > 260 µM (inactive) | Cc1ccc(-c2[nH]ncc2C(=O)c2ccc(Br)cc2)c(O)c1
19 | > 260 µM (inactive) | CCc1ccccc1NC(=O)CC(c1ccc(OC)cc1)n1cccc1 (stereo unspecified)
20 | > 260 µM (inactive) | CCOC(=O)CC1C(=O)NCCN1S(=O)(=O)c1cc(Cl)c(Cl)cc1Cl (stereo unspecified)
21 | > 260 µM (inactive) | Brc1ccccc1-n1nnc(-c2cnc3ccccc3c2)n1
22 | 9.99 µM (active) | Cc1ccc(/C=c2\s/c(=C(/C#N)C(=O)N3CCCC3)n(Cc3ccco3)c2=O)s1

Tested on: not listed separately
Assay: Trypanosoma cruzi growth suppression in host cells – NIH3T3 host cells, beta-gal luminescence, confirmation (AID 2044);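 note: intracellular parasites grown in NIH/3T3 mouse fibroblasts as host cells; luminescent beta-galactosidase reporter signal from transgenic T. cruzi replicating inside host cells; inhibitors lower the luminescence signal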
Assay type: functional, cell-based
Settings: not given

Row | SMILES | EC50
23 | Cc1cc2c3c(c1)C1(C(=O)N3C(C)(C)CC2C)C(C#N)=C(N)Oc2cc(O)ccc21 (stereo unspecified) | 1.41 µM (active)

Tested on: not listed separately
Assay: NIH3T3 cell viability loss – ATP luminescence, mouse fibroblasts, counter-screen, dose response (AID 2010);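 note: cells exposed to compound for about 90 hours before reading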
Assay type: functional, cell-based
Settings: not given

Row | SMILES | EC50
24 | Cc1cc2c3c(c1)C1(C(=O)N3C(C)(C)CC2C)C(C#N)=C(N)Oc2cc(O)ccc21 (stereo unspecified) | > 60 µM (not active)

Molecular target: Cytochrome P450 2C9 (Homo sapiens, UniProt P11712)
Settings: not given

Chain of Cytochrome P450 2C9 (P11712 whole entry): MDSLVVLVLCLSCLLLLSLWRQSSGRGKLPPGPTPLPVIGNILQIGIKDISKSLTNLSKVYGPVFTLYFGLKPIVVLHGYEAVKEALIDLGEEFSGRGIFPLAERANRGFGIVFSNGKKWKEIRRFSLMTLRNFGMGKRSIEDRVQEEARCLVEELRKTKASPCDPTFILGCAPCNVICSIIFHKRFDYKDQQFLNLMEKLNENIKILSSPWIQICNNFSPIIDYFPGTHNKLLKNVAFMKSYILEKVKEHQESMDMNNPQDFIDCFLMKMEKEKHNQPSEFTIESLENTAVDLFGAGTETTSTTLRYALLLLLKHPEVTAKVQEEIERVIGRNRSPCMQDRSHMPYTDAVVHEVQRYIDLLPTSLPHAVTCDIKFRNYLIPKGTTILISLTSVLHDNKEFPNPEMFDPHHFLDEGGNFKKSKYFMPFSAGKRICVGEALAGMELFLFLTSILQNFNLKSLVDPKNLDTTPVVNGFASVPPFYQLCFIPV

Row | AC50 | SMILES
25 | 0.0282 µM (inconclusive) | Cc1ccc(C(=O)CSc2nc(C)cc(=O)[nH]2)cc1

Molecular target: Cytochrome P450 2C19 (Homo sapiens, UniProt P33261)
Assay: Cytochrome panel assay with activity outcomes. Panel member name: p450-cyp2c19 Compounds with AC50 equal or less than 10 uM are considered active
Assay type: functional
Settings: read-out: AC50

Chain of Cytochrome P450 2C19 (P33261 whole entry): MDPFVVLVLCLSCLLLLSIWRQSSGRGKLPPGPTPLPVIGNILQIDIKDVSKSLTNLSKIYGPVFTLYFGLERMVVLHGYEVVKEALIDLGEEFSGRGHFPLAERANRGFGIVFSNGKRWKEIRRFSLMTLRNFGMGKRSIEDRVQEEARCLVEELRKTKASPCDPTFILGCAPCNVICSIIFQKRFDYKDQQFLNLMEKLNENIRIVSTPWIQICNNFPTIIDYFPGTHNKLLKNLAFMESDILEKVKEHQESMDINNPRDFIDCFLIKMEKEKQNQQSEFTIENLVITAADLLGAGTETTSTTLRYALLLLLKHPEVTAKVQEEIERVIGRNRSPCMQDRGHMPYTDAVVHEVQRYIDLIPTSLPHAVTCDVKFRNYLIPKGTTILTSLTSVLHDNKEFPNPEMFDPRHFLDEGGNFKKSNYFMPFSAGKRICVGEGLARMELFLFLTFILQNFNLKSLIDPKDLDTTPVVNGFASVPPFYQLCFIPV

Row | AC50 | SMILES
26 | 39.8 µM (inconclusive) | Cc1ccc(C(=O)CSc2nc(C)cc(=O)[nH]2)cc1
